Values after ≈ are worked out from the molar mass of the structure shown.
Columns and labels:
[1] = tested on: alloxan-induced diabetic rat model; conditions: Wistar (albino), in vivo, 30 days
From the text: This study used an alloxan-induced diabetic rat model to test the anti-hyperglycemic action of substances (3–6, 9, 11). […] The BGL was monitored for each tested compound at three different doses (50, 100, and 250 μ/Kg) and for five experimental period durations (0, 2, 4, 15, 30 days).
At 50 μ/Kg, we observed no mortality during any of the experiment periods for all tested compounds.
Data analyzed by one way ANOVA followed by LSD test and expressed as mean ± SEM from five observations. TEXT PRINTED IN THE PICTURE: 3: Mortilaty: 20% (250 (m/Kg)); Mortilaty: 10% (100 (m/Kg)); Mortilaty: 0% (50 (m/Kg)) | 4: Mortilaty: 20% (250 (m/Kg)); Mortilaty: 10% (100 (m/Kg)); Mortilaty: 0% (50 (m/Kg)) | 5: Mortilaty: 30% (250 (m/Kg)); Mortilaty: 20% (100 (m/Kg)); Mortilaty: 0% (50 (m/Kg)) | 6: Mortilaty: 20% (250 (m/Kg)); Mortilaty: 10% (100 (m/Kg)); Mortilaty: 0% (50 (m/Kg)) | 9: Mortilaty: 20% (250 (m/Kg)); Mortilaty: 10% (100 (m/Kg)); Mortilaty: 0% (50 (m/Kg)) | 11: Mortilaty: 20% (250 (m/Kg)); Mortilaty: 10% (100 (m/Kg)); Mortilaty: 0% (50 (m/Kg)) DOUBTS OF THE COPYIST ABOUT THIS PICTURE: The control groups NO. (labels 0%, 0%, 0%, overlapping) and DC (labels 50%, 50% and a third that reads 50% or 60%, partly hidden) are not compounds and were left out. / 3, 4, 5, 6, 9, 11, Mortilaty at 50 (m/Kg): the 0% labels are partly overlapped by neighbouring bars and labels; 0% is the best reading. / Which label belongs to which dose series was judged from its position over the bars; several labels overlap.

[2] = DPPH radical scavenging activity; conditions: concentrations 0.16-1000 µg/mL
Description: The assay of 2,2-Diphenyl-1-picrylhydrazyl radical (DPPH) was performed according to the method at.
We examined the antioxidant activity of the (3–6, 9, and 11) hybrids using the stable DPPH assay. The antioxidant result was represented as IC50 (the concentration is essential for 50% reduction in the power of H-donation or radical scavenging). […] The increasing scavenging activity may be due to the stabilization of the lone pair in the conjugated system through the presence of the terminal carbonyl and thiazolidinone groups.

[3] = tested on: alloxan-induced diabetic rat model; experiment: serum lipid profile in alloxan-induced diabetic rats; type: in vivo; conditions: for CH level: versus normal animals; for serum CH level decrease: compared to the diabetic control group; for LDL value: versus normal value
Description: The blood samples (0.5 mL) were withdrawn from the retro-orbital plexus of each rat and the other steps adapted for measuring the biochemical analysis are shown in (Supplementary Materials).
A serious side effect related to diabetes is Hyperlipidemia. Insulin deficiency promotes the adipocytes to generate a fatty acid, hepatic phospholipids and cholesterol. Thus, we measured the levels of (cholesterol “CH”, triglyceride “TG”, high, low and very-low- and high/low and very low density lipoproteins “HDL, LDL and VLDL”) in serum for alloxan-loaded diabetes. […] The serum CH. Level decreased by 40%, 32%, 40%, 48%, 52%, and 43% for 3–6, 9, and 11, respectively, compared to the diabetic control group (Figure 7).
Figure 7 The level of Ch (cholesterol), TG (triglyceride), HDL (high density lipoprotein), LDL (low density lipoprotein) and VLDL (very low density lipoprotein) in serum of hyperglycemic loaded rats. […] Data analyzed by one way ANOVA followed by LSD test and expressed as mean ± SEM from five observations.
2007) dissolved in normal saline (Bodade et al., 2013). The animals were allowed to drink 5% glucose solution overnight to overcome the drug induced hypoglycemia (Gandhi and Sasikumar, 2012; Pareek etal., 2009). Blood samples were taken 48 h after injection of alloxan to ensure that diabetes has been induced (Vijayan et al., 2013), and fasting plasma glucose level of rats was determined using glucose strips. Rats with plasma glucose concentration N 300 mg/dl (Gadadare et al., 2015) were considered diabetic and included in […]
The blood samples (0.5 ml) were withdrawn from the retro-orbital plexus of each rat under mild anesthesia using a glass capillary tube after fasting for 6 h. Blood samples were centrifuged at 3000 rpm for 15 min. The serum was kept at −80 °C until analyzed. Speciﬁc reagent kits were used to determine levels of serum triglyceride (TG), serum cholesterol (CH), serum low density lipoproteins (LDL), serum high density lipoproteins (HDL) for assessing the lipid proﬁle.
(§1) Data are expressed as mean ± S.E. Data analysis was done using one way analysis of variance (ANOVA) followed by least significant difference (LSD) test for multiple comparisons. Difference was considered significant when p is less than 0.05. SPSS (version 11) program was used to carry out these statistical tests.

α-amylase = biological target: T1, α-amylase (Homo sapiens, UniProt P04746); experiment: in vitro inhibition of α-amylase assay; type: biochemical; conditions: six concentrations 5-40 µg/mL, non-linear regression
T1 sequence (P04746 16-511): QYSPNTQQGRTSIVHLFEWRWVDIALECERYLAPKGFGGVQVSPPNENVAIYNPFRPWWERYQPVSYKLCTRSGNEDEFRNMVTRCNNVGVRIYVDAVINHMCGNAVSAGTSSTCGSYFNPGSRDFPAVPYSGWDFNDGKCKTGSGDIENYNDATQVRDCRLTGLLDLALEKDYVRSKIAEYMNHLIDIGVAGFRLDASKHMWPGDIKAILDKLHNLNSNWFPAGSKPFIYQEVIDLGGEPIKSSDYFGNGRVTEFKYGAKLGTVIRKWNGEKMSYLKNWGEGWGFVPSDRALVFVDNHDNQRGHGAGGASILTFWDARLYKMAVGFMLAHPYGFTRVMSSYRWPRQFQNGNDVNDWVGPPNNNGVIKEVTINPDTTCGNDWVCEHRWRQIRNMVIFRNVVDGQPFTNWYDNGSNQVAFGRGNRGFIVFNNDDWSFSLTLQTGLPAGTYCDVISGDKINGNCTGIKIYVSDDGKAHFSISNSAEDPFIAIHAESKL
From the text: The α-amylase activity of the probe compounds determined using a method.
This study examined the inhibitory potential for the (3–6, 9, and 11) compounds against α-amylase enzyme. We applied six different concentrations (5,10,15,20,30, and 40) µg/mL for this test. These concentrations were plotted via the inhibition percentage to determine the IC50 (the concentration required to inhibit 50% of the enzyme) using the non-linear regression method.
- inhibition in-vitro of α-Amylase assay:
The α-amylase activity of the compounds were determined using a method in which 250 μL of each compound, or Metformin .HCl, dissolved in ethanol to obtain different concentrations (5, 10, 15, 20,30 and 40 μg/mL ), was mixed with 500 μL of α-amylase (2 U/mL ) in phosphate buffer (100 mM, pH 6.8) and incubated at 37 °C for 10 min. Thereafter, 50 μL of 1% starch, dissolved in the same buffer, was added to the mixture and the samples were incubated again at 37 °C. After 30 min, dinitrosalicylic acid (DNS) colour reagent (1 mL) was added. The (DNS) was prepared by adding 437mg of 3,5- dinitro salicylic acid in 20 mL distilled water to12 g of sodium potassium tartrate in 8 mL of 2 M NaOH, then added distilled water until the solution reach to 40 mL ). the samples were boiled for 10 min in water bath. For non-enzymatic reactions, the assays were performed with a blank containing all of the components except the enzyme. Each concentration was analyzed in three independent experiments run in triplicate.
The percent of inhibition Absorbance was then measured at 540 nm. The percent of inhibition of α-amylase was calculated as following by the formula below:
%inhibition= ((absorbance of blank_absorbance of compound)/absorbance of blank) *100. […]

[4] = tested on: alloxan-induced diabetic rat model; experiment: blood glucose level in alloxan-induced diabetic rat model; type: in vivo; conditions: for reduction percentage of blood glucose level: 30-day treatment protocol, compared with the normal control
Description: Healthy male albino Wistar rats (150 ± 20 g) have been obtained as mentioned in Supplementary Materials.
The animals were kept fasting overnight (12 h) before induction of diabetes, which was induced in rats as reported and mentioned in Supplementary Materials.
We obtained the blood samples from the tail vein of all rats, the blood-glucose-level “BGLs” were measured and monitored in all treatment groups at days 0 (basal), 2th, 4th, 15th, and 30th as reported.
This study used an alloxan-induced diabetic rat model to test the anti-hyperglycemic action of substances (3–6, 9, 11). […] The BGL was monitored for each tested compound at three different doses (50, 100, and 250 μ/Kg) and for five experimental period durations (0, 2, 4, 15, 30 days). […]
The animals were kept fasting overnight (12 h) before induction of diabetes. […]
as §1

[5] = 100 μ/Kg, in comparison with DC, 4th and 15th time durations
[6] = 250 μ/Kg, 30th time duration of treatment
[7] = 250 μ/Kg, 15th and 30th treatments

| Structure (SMILES) | Mortilaty [1] [%] | IC50 DPPH radical scavenging [2] [µg/mL] | VLDL level ([3]; 4th, 15th and 30th days) | CH level ([3]; 30th day, 50 μ/Kg) | TG level ([3]; 30th day, versus normal level, 50 μ/Kg) | serum CH level decrease ([3]; 50 μ/Kg) [%] | IC50 (α-amylase) [µM] | reduction percentage of blood glucose level [4] [%] | BGL ([4]; 50 μ/Kg, 4th, 15th and 30th) | BGL [4, 5] | glucose level [4, 6] | BGL [4, 7] | LDL value ([3]; 2nd and 15th days) | VLDL ([3]; 2nd to 15th days) | VLDL level ([3]; 30th day) | LDL value ([3]; 30th day) | VLDL level of serum ([3]; all experimental periods, compared to the normal rats) | VLDL ([3]; 4th and 30th day) | BGL ([4]; 50 μ/Kg, p < 0.05, all experiment periods compared to DC group) | glucose level ([4]; 100 μ/Kg, in comparison with DC, 4th, 15th and 30th time durations) |
| --- | --- | --- | --- | --- | --- | --- | --- | --- | --- | --- | --- | --- | --- | --- | --- | --- | --- | --- | --- | --- |
| O=C(O)CN1C(=O)SC(=Cc2ccc3c(c2)OCO3)C1=O [Compound 6, 2-(5-(benzo[d][1,3]dioxol-5-ylmethylene)-2,4-dioxothiazolidin-3-yl)acetic acid] | 0 | 10.78 (≈ 35.1 µM) | regulated the VLDL level to the normal level | lower CH level than the normal animals | decreased to the normal level | 48 | 33.4 | 69.55 | moderate reduction in BGL | moderate decreases in BGL | significant reduction in glucose level | – | – | – | – | – | – | – | – | – |
| Cc1nnc(NC(=S)SCC(=O)N2C(=O)S/C(=C/c3ccc4c(c3)OCO4)C2=O)s1 [Compound 9, 2-(5-(Benzo[d][1,3]dioxol-5-ylmethylene)-2,4-dioxothiazolidin-3-yl)-2-oxoethyl (5-Methyl-1,3,4-thiadiazol-2-yl) Carbamodithioate] | – | – | regulated the VLDL level to the normal level | lower CH level than the normal animals | – | 52 | – | – | moderate reduction in BGL | moderate decreases in BGL | – | – | – | – | – | – | – | – | – | – |
| CC(=O)CN1C(=O)SC(=Cc2ccc3c(c2)OCO3)C1=O [Compound 5, 5-(benzo[d][1,3]dioxol-5-ylmethylene)-3-(2-oxopropyl) thiazolidine-2,4-dione] | 0 | – | regulated the VLDL level to the normal level | lower CH level than the normal animals | – | 40 | 59 | – | – | – | – | promising decreases in BGL | – | – | – | – | – | – | – | – |
| O=C1NC(=O)/C(=C\c2ccc3c(c2)OCO3)S1 [Compound 3] | 0 | – | – | lower CH level than the normal animals | – | 40 | 173 | – | – | – | – | – | can regulate the LDL value to the normal value | failed to reach to control value for VLDL | almost reached to the normal VLDL level | failed to do so | – | – | – | – |
| O=C(CCl)N1C(=O)S/C(=C/c2ccc3c(c2)OCO3)C1=O [Compound 4] | 0 | – | – | – | – | 32 | 163 | – | moderate reduction in BGL | moderate decreases in BGL | – | – | – | – | – | – | below the normal value | – | – | – |
| O=C1CSC(=O)N1CC(=O)N1C(=O)SC(=Cc2ccc3c(c2)OCO3)C1=O [Compound 11, 5-(Benzo[d][1,3]dioxol-5-ylmethylene)-3-(2-(2,4-dioxothiazolidin-3-yl)acetyl) Thiazolidine-2,4-dione] | – | 11.16 (≈ 27.5 µM) | – | lower CH level than the normal animals | – | 43 | 49.2 | 66.95 | – | – | significant reduction in glucose level | promising decreases in BGL | – | – | – | – | – | regulated only the VLDL of infected rats to normal values | promising reduction in BGL | significant reduction in glucose level |

From PMC8773338, “Discovery Potent of Thiazolidinedione Derivatives as Antioxidant, α-Amylase Inhibitor, and Antidiabetic Agent” (Biomedicines, 2021)
